Experimental findings from patent US12011455B2, “Enhancing plasmin activity to prevent soft tissue calcification” (Vanderbilt University, priority 2016, dated 2024) are described below.

The test system of this series is CTX-injured skeletal muscle of mice. Kind of series: Cardiotoxin-induced muscle injury model, radiographic/μCT soft tissue calcification and HO. In kind it is in vivo, mouse. To be noted: Plg+/− mice, 7 DPI, vs control. How it is done: Cardiotoxin-Induced Muscle Injury Model: Skeletal muscle injury was induced by an intramuscular injection of 40 μL of 10 nM Cardiotoxin (CTX, Accurate Chemical and Scientific Corp; Westbury, NY) in the posterior compartments of the lower extremities of male C57/B6 mice. Briefly, following anesthetization with Isoflurane, CTX was injected into the lateral aspect of the posterior compartment using a 28.5 G, 0.5 cc insulin syringe. The CTX induces massive local myocyte depolarization, leading to myocyte death. However, muscle resident stem cells are unaffected by the CTX, thereby allowing for muscle regeneration following injury. […]
Radiographic Analysis and Quantification of HO: Quantification was performed as described. […] These images underwent post-image standardization and were quantified with the previously validated heterotopic ossification scoring scale. […] A blinded reviewer assessed all scores (a score of 1=0-24%, a score of 2=25%-49%, a score of 3=50%-74%, and a score of 4=>75% of the lower extremity containing radiographically evident HO).
Ex vivo μCT Imaging and Quantification of HO: μCT mages were acquired (μCT40, Scanco Medical AG, Bassersdorf, Switzerland) following specimen harvest of injured hindlimbs at 55 kVp, 145 uA, 200 ms integration, 500 projections per 180° rotation, with a 20 μm isotropic voxel size. […] Mineral volume was then calculated using the Scanco evaluation software.

Consider “Fbg^ASO: Fibrinogen antisense oligonucleotide GCTTTGATCAGTTCTTTGGC; phosphorothioate backbone, 2′ O methoxyethyl wings (all phosphorothioate, sugars by position and methylation of C not given here; 2'-O-methoxyethyl wings)”, for which the “soft tissue calcification after CTX injury (μCT/radiographs)” value is recorded as “failed to prevent soft tissue calcification”. For the same substance, for the setting “listed as fibrinogen^ASO”, the “soft tissue calcification after CTX injury (μCT/radiographs)” value is reported as “marked soft tissue calcification formation”.
